Results published in US6930115B2, “Antitumor effect potentiators” (Mitsubishi Pharma Corporation, priority 2000, dated 2005).

Tests used:
[1] = test system: mouse B16-F10 melanoma cultured cells; assay: Hematogenous pulmonary metastasis after transplantation of mouse B16-F10 melanoma cultured cells into tail vein; type: in vivo; details: alone
Description: • (1) Preparation of mouse B16-F10 melanoma cultured cells (hereinafter simply B16-F10) B16-F10 cells (a permission to use was obtained from US M.D. Anderson Cancer Center, Dr. I. Fidler and provided for use from Japanese Foundation for cancer research·cancer chemotherapy center, Dr. […] For experiment, B16-F10 cells were suspended in MEM at 5×10^5 cells/mL and 0.2 mL thereof was transferred into the tail vein of 8-week-old male C57BL/6 mice (8 per group). […] Alzet, model 1002, flow rate […], for use for 14 days), and the osmotic pump was intraperitoneally transplanted into the mice one day before the transplantation of B16-F10 cells. • (3) As regards cisplatin, a preparation for injection (product name: Randa injection) was diluted with physiological saline and intraperitoneally administered once the day after transplantation of B16-F10 cells. As regards etoposide, a preparation for injection (product name: […] injection) was diluted with physiological saline and repeatedly administered intraperitoneally once a day for 5 days starting from one day after transplantation of B16-F10 cells. Paclitaxel was purchased from Sigma chemicals Co., suspended in 0.5% metolose solution and repeatedly administered intraperitoneally once every other day (3 times/week for 2 weeks) starting from one day after transplantation of B16-F10 cells. […] In addition, the values of combination index (CI) of the action in concomitant use analyzed by Median Effect Analysis (References and [2]) with regard to the combination group of the compound of the present invention and the anticancer agent are summarized in Table 3 and Table 6.

[2] = test system: Mouse melanoma B16-F10 cells; assay: Measurement of cell growth activity (MTT), in vitro growth of B16-F10 cells; type: cell-based; details: 72 hr culture, MTT
Description: Mouse melanoma B16-F10 cells (the aforementioned) were cultured in MEM supplemented with 2 mM L-glutamine, 1 mM MEM non-essential amino acids, 1% MEM vitamins, 1 mM pyruvic acid and 5% FCS, and the cells were scraped off from the culture flask every 3-4 days with a cell scraper (No. 3010, manufactured by Coaster), diluted 10-fold and maintained by subculture. In the experiment examining the effect of the test substance on the cell growth, the B16-F10 cells maintained in vitro by subculture were recovered with a cell scraper, suspended in MEM supplemented with 10% FCS at 2×10^5 cells/mL and added to a 96 well microtest plate (Becton Dickinson) at 1×10^4 cells/50 μL/well. Furthermore, 50 μL of a test substance at a 2-fold concentration of the final concentration was added to the well, and cultured in a CO2 incubator (MCO-175, SANYO Electric Co., Ltd.) at 37° C., 5% CO2 95% air for 72 hr.
After culture, 10 mg/mL of MTT [(3-[4,5-Dimethylthiazol-2-yl]-2,5-diphenyl-tetrazolium bromide)] was added at 10 μL/well, which was followed by culture for 3 hr. Thereafter, 100 μL of 10% SDS (sodium dodecylsulfate)—0.01N HCl was added to dissolve the pigment and absorbance at 570 nm was measured with a multilabel counter (1420 ARVO SX, Pharmacia Biotech Corporation). According to the concentration of the test substance, each well was expressed by absorbance, and average value and standard error. Using the well, to which the medium alone was added, as a control, the growth inhibition rate was calculated according to the following formula. [formula] Analysis method: Based on the dose reaction curves of the inventive compound alone treatment group and cisplatin alone treatment group, the combination index (CI) of the action in concomitant use is calculated by median effect analysis (References and [2]). (Results)

N.N.[Cl][Pt][Cl] [cisplatin, reference compound]
T/C±standard error (average number of pulmonary metastatic colonies of administration group/control group ×100) ([1]; Table 1, cisplatin 0.5 mg/kg intraperitoneally once, 14 days after cell transfer): 80.2 ± 13.2% | T/C±standard error (average number of pulmonary metastatic colonies of administration group/control group ×100) ([1]; Table 1, cisplatin 1 mg/kg intraperitoneally once, 14 days after cell transfer): 66.5 ± 8.3% | T/C±standard error (average number of pulmonary metastatic colonies of administration group/control group ×100) ([1]; Table 1, cisplatin 2.5 mg/kg intraperitoneally once, 14 days after cell transfer): 57.5 ± 3.0% | T/C±standard error (average number of pulmonary metastatic colonies of administration group/control group ×100) ([1]; Table 1, cisplatin 5 mg/kg intraperitoneally once, 14 days after cell transfer): 53.3 ± 4.5% | T/C±standard error (average number of pulmonary metastatic colonies of administration group/control group ×100) ([1]; Table 1, cisplatin 10 mg/kg intraperitoneally once, 14 days after cell transfer): 46.7 ± 4.1% | T/C±standard error (average number of pulmonary metastatic colonies of administration group/control group ×100) ([1]; Table 2, cisplatin 0.5 mg/kg intraperitoneally once, 14 days after cell transfer): 81.7 ± 13.4% | T/C±standard error (average number of pulmonary metastatic colonies of administration group/control group ×100) ([1]; Table 2, cisplatin 1 mg/kg intraperitoneally once, 14 days after cell transfer): 67.7 ± 8.4% | T/C±standard error (average number of pulmonary metastatic colonies of administration group/control group ×100) ([1]; Table 2, cisplatin 2.5 mg/kg intraperitoneally once, 14 days after cell transfer): 58.6 ± 3.0% | T/C±standard error (average number of pulmonary metastatic colonies of administration group/control group ×100) ([1]; Table 2, cisplatin 5 mg/kg intraperitoneally once, 14 days after cell transfer): 54.3 ± 4.6% | T/C±standard error (average number of pulmonary metastatic colonies of administration group/control group ×100) ([1]; Table 2, cisplatin 10 mg/kg intraperitoneally once, 14 days after cell transfer): 30.8 ± 4.7% | average growth suppression rate ± standard error ([2]; cisplatin 10 μM alone): 5.813 ± 1.510% | average growth suppression rate ± standard error ([2]; cisplatin 30 μM alone): 29.609 ± 4.503% | average growth suppression rate ± standard error ([2]; cisplatin 100 μM alone): 96.631 ± 0.109%

CC(=O)O[C@H]1C(=O)[C@@]2(C)[C@H]([C@H](OC(=O)c3ccccc3)[C@]3(O)C[C@H](OC(=O)[C@H](O)[C@@H](NC(=O)c4ccccc4)c4ccccc4)C(C)=C1C3(C)C)[C@]1(OC(C)=O)CO[C@@H]1C[C@@H]2O [paclitaxel, reference compound]
T/C±standard error (average number of pulmonary metastatic colonies of administration group/control group ×100) ([1]; Table 5, paclitaxel 1 mg/kg intraperitoneally once every other day (3 times/week for 2 weeks)): 75.9 ± 5.9% | T/C±standard error (average number of pulmonary metastatic colonies of administration group/control group ×100) ([1]; Table 5, paclitaxel 2.5 mg/kg intraperitoneally once every other day (3 times/week for 2 weeks)): 48.8 ± 8.4% | T/C±standard error (average number of pulmonary metastatic colonies of administration group/control group ×100) ([1]; Table 5, paclitaxel 5 mg/kg intraperitoneally once every other day (3 times/week for 2 weeks)): 37.3 ± 4.0% | T/C±standard error (average number of pulmonary metastatic colonies of administration group/control group ×100) ([1]; Table 5, paclitaxel 10 mg/kg intraperitoneally once every other day (3 times/week for 2 weeks)): 30.3 ± 3.6% | T/C±standard error (average number of pulmonary metastatic colonies of administration group/control group ×100) ([1]; Table 5, paclitaxel 25 mg/kg intraperitoneally once every other day (3 times/week for 2 weeks)): 31.5 ± 7.2%

COc1cc([C@@H]2c3cc4c(cc3[C@@H](O[C@@H]3O[C@@H]5CO[C@@H](C)O[C@H]5[C@H](O)[C@H]3O)[C@H]3COC(=O)[C@H]23)OCO4)cc(OC)c1O [etoposide, reference compound]
T/C±standard error (average number of pulmonary metastatic colonies of administration group/control group ×100) ([1]; Table 4, etoposide 1 mg/kg intraperitoneally once a day for 5 days): 56.0 ± 3.0% | T/C±standard error (average number of pulmonary metastatic colonies of administration group/control group ×100) ([1]; Table 4, etoposide 2.5 mg/kg intraperitoneally once a day for 5 days): 34.0 ± 7.4% | T/C±standard error (average number of pulmonary metastatic colonies of administration group/control group ×100) ([1]; Table 4, etoposide 5 mg/kg intraperitoneally once a day for 5 days): 33.4 ± 4.0% | T/C±standard error (average number of pulmonary metastatic colonies of administration group/control group ×100) ([1]; Table 4, etoposide 10 mg/kg intraperitoneally once a day for 5 days): 22.5 ± 4.2% | T/C±standard error (average number of pulmonary metastatic colonies of administration group/control group ×100) ([1]; Table 4, etoposide 25 mg/kg intraperitoneally once a day for 5 days): 14.5 ± 2.6%
